In patent US11498899B2, “Nitrone herbicides” (FMC Corporation, priority 2016, dated 2022):

Tests used:
[1] = tested on: barnyardgrass (Echinochloa crus-galli); assay: Test B flooded paddy test, visual rating 0-100; conditions: Flood, 250 g ai/ha, applied to paddy water, rated after 13 to 15 days
[2] = tested on: ducksalad (Heteranthera limosa); assay: Test B flooded paddy test, visual rating 0-100; conditions: Flood, 250 g ai/ha, applied to paddy water, rated after 13 to 15 days
[3] = tested on: pigweed (Amaranthus retroflexus); assay: Test A preemergence, visual injury rating 0-100; assay type: in vivo
[4] = tested on: ragweed (common ragweed, Ambrosia elatior); assay: Test A preemergence, visual injury rating 0-100; assay type: in vivo
[5] = tested on: ryegrass, Italian (Italian ryegrass, Lolium multiflorum); assay: Test A preemergence, visual injury rating 0-100; assay type: in vivo; conditions: 500 g ai/ha
kochia (Kochia scoparia) [6] = assay: Test A preemergence, visual injury rating 0-100; assay type: in vivo
[7] = tested on: foxtail, giant (giant foxtail, Setaria faberii); assay: Test A preemergence, visual injury rating 0-100; assay type: in vivo
[8] = tested on: wheat (Triticum aestivum); assay: Test A postemergence, visual injury rating 0-100; assay type: in vivo; conditions: 0 to 100 scale
[9] = tested on: pigweed (Amaranthus retroflexus); assay: Test A postemergence, visual injury rating 0-100; assay type: in vivo; conditions: 0 to 100 scale
[10] = tested on: blackgrass (Alopecurus myosuroides); assay: Test A postemergence, visual injury rating 0-100; assay type: in vivo; conditions: 0 to 100 scale
[11] = tested on: barnyardgrass (Echinochloa crus-galli); assay: Test A postemergence, visual injury rating 0-100; assay type: in vivo; conditions: 0 to 100 scale
[12] = tested on: galium (catchweed bedstraw, Galium aparine); assay: Test A postemergence, visual injury rating 0-100; assay type: in vivo; conditions: 0 to 100 scale
[13] = tested on: ragweed (common ragweed, Ambrosia elatior); assay: Test A postemergence, visual injury rating 0-100; assay type: in vivo; conditions: 0 to 100 scale
[14] = tested on: ryegrass, Italian (Italian ryegrass, Lolium multiflorum); assay: Test A postemergence, visual injury rating 0-100; assay type: in vivo; conditions: 0 to 100 scale
kochia (Kochia scoparia) [15] = assay: Test A postemergence, visual injury rating 0-100; assay type: in vivo; conditions: 0 to 100 scale
corn (Zea mays) = assay: Test A postemergence, visual injury rating 0-100; assay type: in vivo; conditions: 0 to 100 scale
[16] = tested on: foxtail, giant (giant foxtail, Setaria faberii); assay: Test A postemergence, visual injury rating 0-100; assay type: in vivo; conditions: 0 to 100 scale
rice (Oryza sativa) = assay: Test B flooded paddy test, visual rating 0-100 (0 no effect, 100 complete control); conditions: Flood, 250 g ai/ha, applied to paddy water, rated after 13 to 15 days
[17] = tested on: barnyardgrass (Echinochloa crus-galli); assay: Test A preemergence, visual injury rating 0-100 (0 no effect, 100 complete control); assay type: in vivo

Structure (SMILES)	Barnyardgrass plant response rating (0 to 100 scale) [1]	Ducksalad plant response rating (0 to 100 scale) [2]	Pigweed plant response rating (0 to 100 scale) ([3]; 125 g ai/ha)	Pigweed plant response rating (0 to 100 scale) ([3]; 500 g ai/ha)	Ragweed plant response rating (0 to 100 scale) ([4]; 125 g ai/ha)	Ragweed plant response rating (0 to 100 scale) ([4]; 500 g ai/ha)	Ryegrass, Italian plant response rating (0 to 100 scale) [5]	Kochia plant response rating (0 to 100 scale) (kochia (Kochia scoparia) [6]; 125 g ai/ha)	Kochia plant response rating (0 to 100 scale) (kochia (Kochia scoparia) [6]; 500 g ai/ha)	Foxtail, Giant plant response rating (0 to 100 scale) ([7]; 125 g ai/ha)	Foxtail, Giant plant response rating (0 to 100 scale) ([7]; 500 g ai/ha)	Wheat plant response rating ([8]; 125 g ai/ha)	Wheat plant response rating ([8]; 500 g ai/ha)	Pigweed plant response rating ([9]; 125 g ai/ha)	Pigweed plant response rating ([9]; 500 g ai/ha)	Blackgrass plant response rating ([10]; 125 g ai/ha)	Blackgrass plant response rating ([10]; 500 g ai/ha)	Barnyardgrass plant response rating ([11]; 125 g ai/ha)	Barnyardgrass plant response rating ([11]; 500 g ai/ha)	Galium plant response rating ([12]; 125 g ai/ha)	also measured
CC1=[N+]([O-])C(C(=O)Nc2cccc(F)c2F)C(c2cc(C)c(F)c(C)c2)C1 (racemic) [Compound 111]	0	0	20	60	0	90	90	0	90	90	90	50	70	0	20	80	80	70	90	50	Galium plant response rating ([12]; 500 g ai/ha): 70; Ragweed plant response rating ([13]; 125 g ai/ha): 30; Ragweed plant response rating ([13]; 500 g ai/ha): 70; Ryegrass, Italian plant response rating ([14]; 125 g ai/ha): 40; Ryegrass, Italian plant response rating ([14]; 500 g ai/ha): 80; Kochia plant response rating (kochia (Kochia scoparia) [15]; 125 g ai/ha): 0; Kochia plant response rating (kochia (Kochia scoparia) [15]; 500 g ai/ha): 0; Corn plant response rating (corn (Zea mays); 125 g ai/ha): 70; Corn plant response rating (corn (Zea mays); 500 g ai/ha): 90; Foxtail, Giant plant response rating ([16]; 125 g ai/ha): 40; Foxtail, Giant plant response rating ([16]; 500 g ai/ha): 90; Rice plant response rating (0 to 100 scale) (rice (Oryza sativa)): 0; Barnyardgrass plant response rating (0 to 100 scale) ([17]; 125 g ai/ha): 90; Barnyardgrass plant response rating (0 to 100 scale) ([17]; 500 g ai/ha): 90
CC1=[N+]([O-])C(C(=O)Nc2cccc(F)c2F)C(c2cc(C)cc(C)c2)C1 (racemic) [Compound 112]	70	45	0	70	40	80	100	50	90	90	100	40	70	0	0	80	80	70	90	50	Galium plant response rating ([12]; 500 g ai/ha): 70; Ragweed plant response rating ([13]; 125 g ai/ha): 0; Ragweed plant response rating ([13]; 500 g ai/ha): 60; Ryegrass, Italian plant response rating ([14]; 125 g ai/ha): 40; Ryegrass, Italian plant response rating ([14]; 500 g ai/ha): 90; Kochia plant response rating (kochia (Kochia scoparia) [15]; 125 g ai/ha): 0; Kochia plant response rating (kochia (Kochia scoparia) [15]; 500 g ai/ha): 20; Corn plant response rating (corn (Zea mays); 125 g ai/ha): 80; Corn plant response rating (corn (Zea mays); 500 g ai/ha): 90; Foxtail, Giant plant response rating ([16]; 125 g ai/ha): 90; Foxtail, Giant plant response rating ([16]; 500 g ai/ha): 90; Rice plant response rating (0 to 100 scale) (rice (Oryza sativa)): 0; Barnyardgrass plant response rating (0 to 100 scale) ([17]; 125 g ai/ha): 90; Barnyardgrass plant response rating (0 to 100 scale) ([17]; 500 g ai/ha): 100
CC1=[N+]([O-])C(C(=O)Nc2cccc(F)c2F)C(c2ccc(OC(F)(F)F)c(F)c2)C1 (racemic) [Compound 113]	0	0	30	60	0	70	80	10	90	90	90	0	50	0	20	40	80	30	80	50	Galium plant response rating ([12]; 500 g ai/ha): 70; Ragweed plant response rating ([13]; 125 g ai/ha): 50; Ragweed plant response rating ([13]; 500 g ai/ha): 50; Ryegrass, Italian plant response rating ([14]; 125 g ai/ha): 0; Ryegrass, Italian plant response rating ([14]; 500 g ai/ha): 50; Kochia plant response rating (kochia (Kochia scoparia) [15]; 125 g ai/ha): 0; Kochia plant response rating (kochia (Kochia scoparia) [15]; 500 g ai/ha): 40; Corn plant response rating (corn (Zea mays); 125 g ai/ha): 20; Corn plant response rating (corn (Zea mays); 500 g ai/ha): 80; Foxtail, Giant plant response rating ([16]; 125 g ai/ha): 80; Foxtail, Giant plant response rating ([16]; 500 g ai/ha): 90; Rice plant response rating (0 to 100 scale) (rice (Oryza sativa)): 0; Barnyardgrass plant response rating (0 to 100 scale) ([17]; 125 g ai/ha): 90; Barnyardgrass plant response rating (0 to 100 scale) ([17]; 500 g ai/ha): 90
CC1=[N+]([O-])C(C(=O)Nc2cccc(F)c2F)C(c2cc(F)c(C(F)(F)F)c(F)c2)C1 (racemic) [Compound 114]	40	60	50	80	80	90	90	20	80	90	90	40	60	0	70	80	80	70	90	70	Galium plant response rating ([12]; 500 g ai/ha): 70; Ragweed plant response rating ([13]; 125 g ai/ha): 30; Ragweed plant response rating ([13]; 500 g ai/ha): 70; Ryegrass, Italian plant response rating ([14]; 125 g ai/ha): 60; Ryegrass, Italian plant response rating ([14]; 500 g ai/ha): 70; Kochia plant response rating (kochia (Kochia scoparia) [15]; 125 g ai/ha): 20; Kochia plant response rating (kochia (Kochia scoparia) [15]; 500 g ai/ha): 70; Corn plant response rating (corn (Zea mays); 125 g ai/ha): 40; Corn plant response rating (corn (Zea mays); 500 g ai/ha): 80; Foxtail, Giant plant response rating ([16]; 125 g ai/ha): 80; Foxtail, Giant plant response rating ([16]; 500 g ai/ha): 90; Rice plant response rating (0 to 100 scale) (rice (Oryza sativa)): 30; Barnyardgrass plant response rating (0 to 100 scale) ([17]; 125 g ai/ha): 90; Barnyardgrass plant response rating (0 to 100 scale) ([17]; 500 g ai/ha): 90
CC1=[N+]([O-])C(C(=O)Nc2cccc(F)c2F)C(c2cccc(Oc3ncc(Cl)cn3)c2)C1 (racemic) [Compound 115]	0	0	0	0	0	20	80	0	30	20	90	10	50	0	20	40	80	0	60	40	Galium plant response rating ([12]; 500 g ai/ha): 70; Ragweed plant response rating ([13]; 125 g ai/ha): 0; Ragweed plant response rating ([13]; 500 g ai/ha): 20; Ryegrass, Italian plant response rating ([14]; 125 g ai/ha): 0; Ryegrass, Italian plant response rating ([14]; 500 g ai/ha): 60; Kochia plant response rating (kochia (Kochia scoparia) [15]; 125 g ai/ha): 0; Kochia plant response rating (kochia (Kochia scoparia) [15]; 500 g ai/ha): 20; Corn plant response rating (corn (Zea mays); 125 g ai/ha): 0; Corn plant response rating (corn (Zea mays); 500 g ai/ha): 60; Foxtail, Giant plant response rating ([16]; 125 g ai/ha): 0; Foxtail, Giant plant response rating ([16]; 500 g ai/ha): 70; Rice plant response rating (0 to 100 scale) (rice (Oryza sativa)): 0; Barnyardgrass plant response rating (0 to 100 scale) ([17]; 125 g ai/ha): 90; Barnyardgrass plant response rating (0 to 100 scale) ([17]; 500 g ai/ha): 90
